According to patent US8859848B2, “Phloretin glycosyltransferases, polynucleotides encoding these and methods of use” (The New Zealand Institute for Plant and Food Research …, priority 2007, dated 2014):
Entries after “also recorded” stand apart in the source; their conditions may differ. Like-named read-outs stand apart in the source and are kept apart here.

T1: MpUGT88A1 (Malus domestica, UniProt B3TKC8)
T1 construct: The entire coding region of the MpUGT88A1 cDNA was cloned in frame into the expression vector pET30a(+); made in house; host or cells: E. coli BL21-Codon-Plus-RIL
T1 sequence (B3TKC8 1-483): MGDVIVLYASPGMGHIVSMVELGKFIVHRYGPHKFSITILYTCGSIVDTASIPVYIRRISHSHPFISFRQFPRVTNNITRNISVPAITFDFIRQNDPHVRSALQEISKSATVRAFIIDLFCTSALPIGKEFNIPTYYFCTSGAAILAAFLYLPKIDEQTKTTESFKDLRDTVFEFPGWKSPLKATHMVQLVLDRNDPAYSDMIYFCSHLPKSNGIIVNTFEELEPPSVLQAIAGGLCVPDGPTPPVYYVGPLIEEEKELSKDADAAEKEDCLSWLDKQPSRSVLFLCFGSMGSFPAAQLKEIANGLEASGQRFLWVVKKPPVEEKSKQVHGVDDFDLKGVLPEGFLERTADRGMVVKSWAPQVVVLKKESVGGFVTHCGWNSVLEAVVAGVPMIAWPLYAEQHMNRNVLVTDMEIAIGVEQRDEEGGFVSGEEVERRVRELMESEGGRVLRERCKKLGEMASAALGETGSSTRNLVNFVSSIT

B1: MpUGT88A1: Malus domestica uridine diphosphate glycosyltransferase; recombinant His6-tagged phloretin glycosyltransferase produced in E. coli (protein, listed as Malus domestica)
chain: T1 sequence (B3TKC8 1-483)
modifications: His6 tag
notes: Malus domestica uridine diphosphate glycosyltransferase; recombinant His6-tagged phloretin glycosyltransferase produced in E. coli
B2: Md—138221: variant phloretin glycosyltransferase polypeptide from Malus x domestica (protein, listed as Malus domestica)
chain: MGDVIVLYAAPGMGHVISMVELGKLILHRYGPHKFSITILYTCGSFFDTPSIPAYIRRISHSHPSISFRQFPRVTNKITQNISGTAIVVDFVRQNDPHVRRALQDISKSAVVRAFIIDLVCTSAMTISKEFDIPTYYFYTSGAAALGAFLYFPKIHEQTTQSFKDLTDTVIEFPGRKSPLKAIHMIEPLLDRDDPAYWDFLSFCSDLPKSKGIIVNTFEELEPPAVLHAIAEGLCVPDGPTSPVYYVGPLIDEEKVSGNDAAAAEEDCLSWLDKQPSRSVVFLCFGSRGSLPAIQLKEIAKALEASGQRFLWVVKKPPVDEKTKQVLGVDDFDLEGVLPEGFLERTKDRGMVVKSWAPQAEVLKKESVGGFVTHCGWNSVLEAVVAGVPMIAWPLYAEQHLNRNVMATDMEIAIAVEQRDEEDGFVSGEELERRVRELMESEEGRVLRERSKKIGEMAMAALGENGSSTRNLVNFVNSLT

Assays:
Format in all cases: biochemical
[1] = biological target: T1, MpUGT88A1; assay: UGT activity assay with [3H]-UDP-glucose, recombinant MpUGT88A1; settings: [3H]-UDP-glucose as sugar donor; 2 mM substrate; 30° C., 30 min
Protocol: UGT activity assays were performed in triplicate in 50 μl reactions using ˜1-2 μg of recombinant protein purified on His-Trap and G200 Superdex columns. […] Reactions were performed at 30° C. for 30 min and terminated by addition of 10 μL of 2 M HCl. The reaction mixtures were extracted twice with 100 μL of ethyl acetate and 20 μl of the organic phase were combined with 1 ml of non-aqueous scintillation fluid and analysed by liquid scintillation counting (Tri-Carb 2900TR, PerkinElmer, Boston, Mass., USA). Boiled enzyme and pET30a(+) vector controls were run in parallel with all enzyme reactions. […]
Fifteen substrates (caffeic acid, catechin, chlorogenic acid, 2-coumaric acid, 3-coumaric acid, 4-coumaric acid, cyanidin, 3-(3,4 dihydroxyphenyl) propionic acid, epicatechin, 3-hydroxybenzoic acid, naringenin, phloretin, protocatechuic acid, quercetin and rutin) that are natural constituents of apple fruit or commonly available phenolic compounds were screened for activity.

[2] = biological target: T1, MpUGT88A1; settings: 2 μM phloretin; for inhibition of enzyme activity by divalent cations: 25 mM
Protocol: (§1) UGT activity assays were performed in triplicate in 50 μl reactions using ˜1-2 μg of recombinant protein purified on His-Trap and G200 Superdex columns. […] Reactions were performed at 30° C. for 30 min and terminated by addition of 10 μL of 2 M HCl. The reaction mixtures were extracted twice with 100 μL of ethyl acetate and 20 μl of the organic phase were combined with 1 ml of non-aqueous scintillation fluid and analysed by liquid scintillation counting (Tri-Carb 2900TR, PerkinElmer, Boston, Mass., USA). Boiled enzyme and pET30a(+) vector controls were run in parallel with all enzyme reactions.
(§2) The effect on UGT activity of different pH (5-10), temperature (15-50° C.) and ionic strength of monovalent (Na^+, 0-100 mM; K^+, 0-10 mM) and divalent ions ([…] or Mn^2+, 0-25 mM) was determined as described above using 2 μM phloretin.

[3] = biological target: T1, MpUGT88A1; settings: 10 μM phloretin, 250 μM UDP-sugar, 16 h
[4] = Effect of pH and temperature on UGT activity of MpUGT88A1 towards phloretin; settings: 2 μM phloretin
Protocol: as §1, §2

[5] = Phloretin glycosyl transferase activity assay of recombinant Md—138221; settings: recombinant protein from E. coli
Protocol: as §1

Molecule	utilised by MpUGT88A1 as an acceptor (substrate screen) [1]	also measured
O=C(O)/C=C/c1ccccc1O [2-coumaric acid]	only phloretin was utilised	–
O=C(O)CCc1ccc(O)c(O)c1 [3-(3,4 dihydroxyphenyl) propionic acid]	only phloretin was utilised	–
O=C(O)/C=C/c1cccc(O)c1 [3-coumaric acid]	only phloretin was utilised	–
O=C(O)c1cccc(O)c1 [3-hydroxybenzoic acid]	only phloretin was utilised	–
O=C(O)/C=C/c1ccc(O)cc1 [4-coumaric acid]	only phloretin was utilised	–
[K+] [K^+]	–	inhibition of enzyme activity by monovalent cation ([2]; 10 mM): not inhibited
[Mg+2] [Mg^2+]	–	inhibition of enzyme activity by divalent cations [2]: not inhibited
[Mn+2] [Mn^2+]	–	inhibition of enzyme activity by divalent cations [2]: not inhibited
[Na+] [Na^+]	–	inhibition of enzyme activity by monovalent cation ([2]; 100 mM): not inhibited
O=c1ccn([C@@H]2O[C@H](COP(=O)(O)OP(=O)(O)O[C@H]3OC[C@@H](O)[C@H](O)[C@H]3O)[C@@H](O)[C@H]2O)c(=O)[nH]1 [UDP-xylose]	–	glycosylated product formation with phloretin and activated sugar donor (HPLC/LC-MS) [3]: a single glycosylated product was formed
O=C(O)/C=C/c1ccc(O)c(O)c1 [caffeic acid]	only phloretin was utilised	–
O=C(/C=C/c1ccc(O)c(O)c1)O[C@@H]1C[C@](O)(C(=O)O)C[C@@H](O)[C@H]1O [chlorogenic acid]	only phloretin was utilised	–
O=C1C[C@@H](c2ccc(O)cc2)Oc2cc(O)cc(O)c21 [naringenin]	only phloretin was utilised; also recorded: not utilised as substrates	–
O=C(CCc1ccc(O)cc1)c1c(O)cc(O)cc1O [phloretin]	only phloretin was utilised	–
O=C(O)c1ccc(O)c(O)c1 [protocatechuic acid]	only phloretin was utilised	–
O=c1c(O)c(-c2ccc(O)c(O)c2)oc2cc(O)cc(O)c12 [quercetin]	only phloretin was utilised; also recorded: not utilised as substrates	–
catechin	only phloretin was utilised	–
B1	–	pH range of significant activity ([4]; pH range 5-10): 7-8; pH of maximum activity ([4]; pH range 5-10, 50 mM Tris-HCl): 7.7; activity at pH 5 and 10 ([4]; relative to maximum): less than 5%; activity at pH 6 and 9 ([4]; relative to maximum): 20%; temperature of maximum activity ([4]; standard conditions): 25 °C; temperature range of activity ([4]; standard conditions): 15-50 °C
B2	–	phloretin glycosyltransferase activity relative to that shown for MpUGT88A1 [5]: approximately 3%
